Measurements taken from patent US20250122225A1, “MASP-2 INHIBITORS AND METHODS OF USE” (Omeros Corporation, priority 2023, published 2025).
Counter-ions that a name gives are not always drawn.

Columns and labels:
Format in all cases: biochemical
[1] = tested on: Lectin Pathway Activation in human serum; test: Lectin Pathway Activation (LPA) assay in human serum, mannan-coated ELISA plate, C4c detection; settings: 1% human serum, read-out: LPA Functional Activity (IC50)
Experimental: Lectin Pathway Activation (LPA) Assay in Human Serum Treated with Compounds
A microtiter ELISA plate was coated with mannan (1 mg/ml) from Saccharomyces cerevisiae (Sigma-Aldrich®, M7504) overnight at 4° C. in coating buffer [33.3 mM Na2CO3, 166.67 mM NaHCO3]. The plate was blocked with 5% bovine serum albumin (BSA) (Sigma-Aldrich®, A3294) in 1×PBST [Phosphate Buffered Saline Solution (1.06 mM KH2PO4, 155.2 mM NaCl, 2.97 mM Na2HPO4^−·7H2O, pH 7.4), 0.05% Tween-20] shaking for 2 hours at room temperature. 1% human serum was incubated with serial dilutions of small compounds in 1× LPA+ Buffer [20 mM Hepes, pH 7.4, 140 mM NaCl, 2 mM MgCl2 (6H2O)] and incubated for 5 minutes at room temperature. 40 μL of this mixture was then added to the plate, and the plate was incubated at room temperature for 55 mins. Next, the reaction was stopped by adding 20 μL of EDTA Stop Solution [20 mM Hepes, pH7.4, 140 mM NaCl, 150 mM EDTA] to the plate. The plate was then washed 10× in wash buffer 1×PBST; 40 μL of Rabbit Anti Human C4c Antibody [Dako®, Q0369] diluted 1:20000 in wash buffer was added; and the plate was incubated shaking at room temperature for 30 minutes. The plate was washed [5× times]; 40 μL of Goat Anti-rabbit Antibody-HRP Conjugate [Southern Biotech®, 4050-05] diluted 1:10000 in wash buffer was added; and the plate was incubated shaking at room temperature for 30 minutes. After that, the plate was washed five times; 40 µL/well of Amplex® UltraRed Substrate Solution [1× LPA Buffer, 10 mM Amplex® UltraRed Stock Solution [Thermo Fisher Sci.®, A36006], 3% stabilized hydrogen peroxide [Sigma Aldrich®, 216763] was added; the plate was incubated at room temperature for 16 minutes; the reaction was stopped by adding 8 µL/well of Amplex® UltraRed Stop Solution [Thermo Fisher Sci.®, A33855] in 100% EtOH. Finally, the plate was read for fluorescence at Ex: 550 nm, Em: 580 nm on the i3x Microplate Reader.

human α-thrombin = target: T1, human α-thrombin (Homo sapiens, UniProt P00734); test: Enzymatic assay for thrombin (fluorogenic peptide substrate Boc-VPR-AMC)
T1 construct: enzyme (human α-thrombin (BioPharm® Lab.)) in assay buffer; purchased BioPharm® Lab
How it was run: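 Assay conditions kept the reaction linear in time, enzyme and substrate, so IC50 approximated Ki apart from tight- or slow-binding cases. Boc-VPR-AMC cleavage by human α-thrombin proceeded 20 min at room temperature in Hepes pH 7.4/NaCl/Tween 20 buffer, then was acid-quenched and read by fluorescence.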

MASP-2 (CCP1-CCP2-SP) = target: T2, MASP-2 (CCP1-CCP2-SP) (Homo sapiens, UniProt O00187); test: Enzymatic assay for MASP-2 inhibitory activity (fluorogenic substrate)
T2 construct: 15 μL of Enzyme MASP-2 (CCP1-CCP2-SP) in Assay Buffer
How it was run: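 Fluorescence was normalized between no-enzyme and DMSO-only controls to derive % activity, with IC50 taken as equivalent to Ki except for tight-binding inhibitors. Reactions ran 20 min at room temperature in HEPES pH 7.4/NaCl/Tween 20 buffer, using the C2-derived fluorogenic substrate, before acetic acid stop.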

T2 sequence (O00187 445-686 limits assumed): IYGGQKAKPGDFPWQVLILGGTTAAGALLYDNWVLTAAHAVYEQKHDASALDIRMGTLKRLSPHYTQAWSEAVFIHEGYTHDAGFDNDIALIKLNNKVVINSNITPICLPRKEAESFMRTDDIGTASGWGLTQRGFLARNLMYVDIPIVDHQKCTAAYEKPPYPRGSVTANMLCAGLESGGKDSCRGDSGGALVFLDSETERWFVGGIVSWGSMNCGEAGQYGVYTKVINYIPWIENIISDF
T2 sequence (O00187 287-444 partner limits assumed): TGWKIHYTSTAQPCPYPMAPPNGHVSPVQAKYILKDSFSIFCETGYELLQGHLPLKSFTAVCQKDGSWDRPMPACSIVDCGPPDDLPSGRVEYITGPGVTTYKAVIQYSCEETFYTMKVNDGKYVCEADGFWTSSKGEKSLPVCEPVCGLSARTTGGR

IC50 [1] [nM] | Ki (human α-thrombin) [nM] | Ki (MASP-2 (CCP1-CCP2-SP)) [nM] | Structure (SMILES)
50 to 500 | < 500 | < 500 | Cc1cc(C)cc(CNc2ncc3n(c2=O)[C@H](C(=O)NCc2ccnc(N)c2)CC3)c1 [Compound 88, (S)-N-((2-aminopyridin-4-yl)methyl)-3-((3,5-dimethylbenzyl)amino)-4-oxo-4,6,7,8-tetrahydropyrrolo[1,2-a]pyrazine-6-carboxamide]
< 50 | 500 to 2500 | < 500 | Cc1nc(N)ccc1CNC(=O)[C@@H]1CCc2c(Cl)nc(NCc3ccccc3)c(=O)n21 [Compound 131, (S)-N-((6-amino-2-methylpyridin-3-yl)methyl)-3-(benzylamino)-1-chloro-4-oxo-4,6,7,8-tetrahydropyrrolo[1,2-a]pyrazine-6-carboxamide]
50 to 500 | < 500 | < 500 | Cc1cc(F)cc(CNc2ncc3n(c2=O)[C@H](C(=O)NCc2cnc(N)c(C)c2)CC3)c1 [Compound 213, (S)—N-((6-amino-5-methylpyridin-3-yl)methyl)-3-((3-fluoro-5-methylbenzyl)amino)-4-oxo-4,6,7,8-tetrahydropyrrolo[1,2-a]pyrazine-6-carboxamide trifluoroacetate]
< 50 | < 500 | < 500 | O=C(NCc1cc2c(s1)CNC2)[C@@H]1CCc2cnc(N[C@@H](c3ccccc3)C3CC3)c(=O)n21 [Compound 259, (S)-3-(((R)-cyclopropyl(phenyl)methyl)amino)-N-((5,6-dihydro-4H-thieno[2,3-c]pyrrol-2-yl)methyl)-4-oxo-4,6,7,8-tetrahydropyrrolo[1,2-a]pyrazine-6-carboxamide trifluoroacetate]
< 50 | 2500 to 10000 | < 500 | COc1cc(C)cc(CNc2ncc3n(c2=O)[C@H](C(=O)N[C@H](C)c2ccc(N)nc2)CC3)c1 [Compound 194, (S)-N-((R)-1-(6-aminopyridin-3-yl)ethyl)-3-((3-methoxy-5-methylbenzyl)amino)-4-oxo-4,6,7,8-tetrahydropyrrolo[1,2-a]pyrazine-6-carboxamide trifluoroacetate]
50 to 500 | > 25000 | < 500 | O=C(NCc1cc2cnccc2[nH]1)[C@@H]1CCc2c(Cl)nc(NCc3cnccn3)c(=O)n21 [Compound 239]
50 to 500 | 500 to 2500 | < 500 | CC[C@@H](Nc1ncc2n(c1=O)[C@H](C(=O)N[C@H](C)c1cc3c(s1)CNC3)CC2)c1ccccc1 [Compound 277]
< 50 | > 25000 | < 500 | O=C(NCc1cc2cnccc2[nH]1)[C@@H]1CCc2c(C3=CCOCC3)nc(NCc3ccccc3)c(=O)n21 [Compound 120, (S)—N-((1H-pyrrolo[3,2-c]pyridin-2-yl)methyl)-3-(benzylamino)-1-(3,6-dihydro-2H-pyran-4-yl)-4-oxo-4,6,7,8-tetrahydropyrrolo[1,2-a]pyrazine-6-carboxamide]
< 50 | < 500 | < 500 | O=C(NCc1cc2c(s1)CNC2)[C@@H]1CCc2cnc(N[C@H]3CCc4ccc(-c5ccccc5)cc43)c(=O)n21 [Compound 257]
< 50 | < 500 | < 500 | Cc1ccc(F)c(CNc2ncc3n(c2=O)[C@H](C(=O)NCc2cc4cnccc4[nH]2)CC3)c1 [Compound 78, (S)-N-((1H-pyrrolo[3,2-c]pyridin-2-yl)methyl)-3-((2-fluoro-5-methylbenzyl)amino)-4-oxo-4,6,7,8-tetrahydropyrrolo[1,2-a]pyrazine-6-carboxamide]
